Where “and” joins values, the source holds several entries; their conditions need not be identical. Equal entries are not always repeated. Calls of active or inactive are those of the source. How the calls were made is not given here.

The target in the experiment is Peptidyl-prolyl cis-trans isomerase FKBP1A (Homo sapiens) (UniProt P62942). Nature of the experiment: FKBP12 binders, biophysical, NMR detection (AID 608). The conditions noted are these: NMR binding, purified FKBP12.
Chain of Peptidyl-prolyl cis-trans isomerase FKBP1A (Homo sapiens) (P62942 whole entry, looked up): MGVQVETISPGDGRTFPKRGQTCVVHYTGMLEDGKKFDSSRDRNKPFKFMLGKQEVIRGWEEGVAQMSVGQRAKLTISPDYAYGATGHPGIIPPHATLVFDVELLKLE
What is called Kd is the equilibrium constant for the complex coming apart. With `CC(C)n1c(Nn2cnnc2)nc2ccccc21`, the Kd was > 4 mM (inactive).
As to `O=c1[nH]cnc2nn(-c3ccccc3)nc12`, the Kd is > 4 mM (inactive).
Then `C=CC(=O)N1CC2CC(C1)c1cccc(=O)n1C2` (configuration not stated), with > 4 mM (inactive); and `Cc1noc(C)c1CSc1nc2ccccc2[nH]1`, with 0.157 mM; and `NC(=O)c1ccc(SCC(=O)O)c([N+](=O)[O-])c1`, with > 4 mM (inactive).
On to `C=C1C(=O)O[C@@H]2C3OC3(C)CC/C=C(\C)CC[C@@H]12` (some centres not stated), for which the Kd is > 4 mM (inactive).
For the molecule `CC(=O)c1c(C)n(O)c2ccc3nonc3c12`, the Kd is > 4 mM (inactive).
Next, `Cc1cccc(N2CCN(C(=O)c3ccncc3)CC2)c1C`: > 4 mM (inactive); `CCSc1nc(=S)n(CC)c(C)c1C(C)=O`: > 4 mM (inactive).
Next, `Cc1cccc(N2C(=O)CC(=O)NC2=O)c1`: > 4 mM (inactive).
Then `CC(C)=CC(=O)Nc1ccccc1C(N)=O`, with > 4 mM (inactive); and `Cc1cccc(C)c1N1C(=O)CCC1=O`, with > 4 mM (inactive).
For `COC(=O)C1CCc2ccccc2N1` (configuration not stated), the Kd is > 4 mM (inactive).
Next, `O=C1Nc2ccc(S(=O)(=O)NCCO)c3cccc1c23`: > 4 mM (inactive).
`Cc1cc(C(=O)Nn2cnnc2)cs1`: the Kd is > 4 mM (inactive).
Next, `CC(=O)/C=C\[C@@H]1[C@@]2(C)CCCC(C)(C)C2CC[C@@]1(C)O` (some centres not stated): > 4 mM (inactive).
On to `c1ccc(-c2noc(-c3ccco3)n2)nc1`, for which the Kd was > 4 mM (inactive).
On to `N#CCSc1nnc2ccc3ccccc3n12`, for which the Kd was > 4 mM (inactive).
Regarding `O=C(Cn1cnc2ccccc2c1=O)N1CCOCC1`, the Kd was > 4 mM (inactive).
On to `Cc1ccccc1-n1c(-c2ccncc2)n[nH]c1=S`, for which the Kd was > 4 mM (inactive).
Then `Cc1ccc(C)c(C(=O)n2cnnc2N)c1`, with > 4 mM (inactive); and `Cc1n[nH]c(C)c1-c1ccccc1C(=O)O`, with > 4 mM (inactive); and `Nc1nnc(Cc2ccc(Cl)cc2)s1`, with > 4 mM (inactive).
Then `CC1(C)Cc2cccc(CO)c2O1`, with > 4 mM (inactive).
Next, `COc1ccccc1/C=C\C(=O)O`: > 4 mM (inactive); `Nc1cc(C(F)(F)F)ccc1N1CCOCC1`: > 4 mM (inactive).
In the case of `O=C(O)Cc1n[nH]c(=O)c2ccccc12`, the Kd is > 4 mM (inactive).
Then `CC(C)CC(=O)NC1CCSC1=O` (configuration not stated), with > 4 mM (inactive); and `COC(=O)[C@@H]1OC(=O)[C@H]2O[C@@]23[C@@]1(C)CCC1[C@@]2(C)CCC(=O)C(C)(C)C2C[C@@H](OC(C)=O)[C@]13C` (some centres not stated), with > 4 mM (inactive); and `C#CCCCCCCCCCCCc1ccco1`, with > 4 mM (inactive).
As to `O=C(O)CS(=O)(=O)c1ccccc1`, the Kd is > 4 mM (inactive).
Consider `NC(=O)C1CCN(c2nccc(C(F)(F)F)n2)CC1`, for which the Kd is > 4 mM (inactive).
Then `O=C(O)c1cccc(-n2cccc2)c1`, with > 4 mM (inactive); and `Cc1cc(C)n(S(=O)(=O)c2ccc(C)c(C)c2C)n1`, with > 4 mM (inactive).
Next, `CC12CN3CC(C)(CN(C1)C3c1cccs1)C2O` (configuration not stated): > 4 mM (inactive).
Next, `CCc1c(C)[nH]c(=S)c(C(N)=O)c1C`: > 4 mM (inactive).
For the molecule `Nc1ccc(NC(=O)c2ccco2)c(Cl)c1`, the Kd is > 4 mM (inactive).
For `CC(=O)NN1C(=O)c2cccc3cccc(c23)C1=O`, the Kd is > 4 mM (inactive).
Next, `CC(C)NS(=O)(=O)c1ccc(N)cc1`: > 4 mM (inactive).
Then `COc1ccc(C)cc1S(=O)(=O)N1CCCCC1`, with > 4 mM (inactive); and `NC(=O)CCn1c(=O)oc2ccccc21`, with > 4 mM (inactive); and `O=C(O)c1ccc2[nH]c3c(c2c1)CSCC3`, with > 4 mM (inactive).
With `CC(=O)Nc1cccc(N2CCCC2=O)c1`, the Kd is > 4 mM (inactive).
Regarding `CCC(C)C(NC)C(=O)O` (configuration not stated), the Kd is > 4 mM (inactive).
Next, `O=C(Nc1ccc2c(c1)OCCO2)c1ccncc1`: > 4 mM (inactive); `COc1cc(OC)c2c(=O)c(-c3ccccc3)coc2c1`: > 4 mM (inactive).
Next, `Fc1ccc(Br)cc1/C=N/n1cnnc1`: > 4 mM (inactive); `CCOC12NC(=O)CC(=O)N1C(c1ccccc1)=CS2` (configuration not stated): > 4 mM (inactive).
Then `CC(NC(=O)c1ccco1)C1CCCO1` (configuration not stated), with > 4 mM (inactive).
With `O=P(O)(Cc1ccccc1)c1ccccc1`, the Kd is > 4 mM (inactive).
Next, `C=CC(C)(O)CC/C=C(\C)CCC=C(C)C` (configuration not stated): > 4 mM (inactive); `NC(=O)Nc1cccc(C(F)(F)F)c1`: > 4 mM (inactive).
Then `Cc1onc(-c2ccccc2)c1CO`, with > 4 mM (inactive); and `CC(=O)Nc1sc(C)c(C)c1C(N)=O`, with > 4 mM (inactive); and `CCOC(=O)c1c(C)cc(O)c(C)c1O`, with > 4 mM (inactive).
Take `C=Cc1c(C)c2cc3[nH]c(cc4nc(cc5nc(cc1[nH]2)C(C)=C5CCC(=O)O)C(CCC(=O)O)=C4C)c(C)c3C=C`: the Kd is > 4 mM (inactive).
Then `O=C(O)c1coc2c1C(=O)CCC2`, with > 4 mM (inactive).
Next, `CC1CC[C@@]2(OC1)O[C@H]1CC3C4CC[C@@H]5C[C@@H](O)CC[C@]5(C)C4CC[C@]3(C)[C@H]1[C@@H]2C` (some centres not stated): > 4 mM (inactive); `O=C(c1ccccc1)c1ccc(N2CCNCC2)cc1`: > 4 mM (inactive); `NC(=O)c1cccc2c1OCCO2`: > 4 mM (inactive).
Then `Nc1ccc(-n2cccc2)cc1`, with > 4 mM (inactive).
As for `COc1ccc2nc(N)sc2n1`, the Kd is > 4 mM (inactive).
Next, `CC(=O)O[C@@H]1CC2C(C)(C)CCC(=O)[C@]2(C)C2CC[C@@]3(C)[C@H](c4ccoc4)OC(=O)C4OC43[C@@]21C` (some centres not stated): > 4 mM (inactive); `COC(=O)C1COCCN1C(=O)C(F)(F)Sc1ccc(C(C)C)cc1` (configuration not stated): 0.19 mM; `CC(=O)O[C@]1(C)CC[C@@]23CC1C(C)(C)[C@@H]2CC[C@H]3C`: > 4 mM (inactive).
Turning to `NC(=O)CSc1nnc(-c2cccnc2)o1`, the Kd was > 4 mM (inactive).
Next, `Cc1ccc(C)n1CCN1CCNCC1`: > 4 mM (inactive); `CN1C(=O)Cc2cc(S(N)(=O)=O)ccc21`: > 4 mM (inactive); `COCC(=O)Nc1ccc(C)c(Cl)c1`: > 4 mM (inactive).
Next, `COC(=O)Cn1c2ccccc2c2nc(C)sc21`: > 4 mM (inactive).
With `Nc1nnc(SCc2ccc3c(c2)OCO3)s1`, the Kd is > 4 mM (inactive).
Then `COc1ccccc1-c1nc(-c2ccc(C)nc2OC)no1`, with > 4 mM (inactive); and `C=C1CSc2nc(=O)c3c(C)c(C)sc3n21`, with > 4 mM (inactive); and `Cc1nc(-c2ccccc2)sc1CN`, with > 4 mM (inactive).
Next, `CC(=O)NC(=S)Nc1ccc(C(C)=O)cc1`: > 4 mM (inactive).
Next, `OC1CCN(C(=S)NC2CC2)CC1`: > 4 mM (inactive); `Cn1nccc1N`: > 4 mM (inactive).
Consider `CCOC(=O)N1CCCC1c1cccnc1` (configuration not stated), for which the Kd is > 4 mM (inactive).
Then `CC(C)C(C)/C=C/C(C)C1CCC2C3=CC=C4CC(O)CCC4(C)C3CCC21C` (configuration not stated), with > 4 mM (inactive); and `NCCCCN=C(N)N`, with > 4 mM (inactive).
As to `O=C(O)c1cccnc1-c1nc2ccccc2s1`, the Kd was > 4 mM (inactive).
Next, `NC(=O)Cn1cnc2ccccc21`: > 4 mM (inactive).
Turning to `O=C(O)CCn1cncn1`, the Kd is > 4 mM (inactive).
Next, `Cc1cc(C)n2c(SCc3c(C)noc3C)nnc2n1`: > 4 mM (inactive); `COCC(=O)Nc1nc2ccc(C)cc2s1`: > 4 mM (inactive); `COc1c2occc2c(OC)c2c(=O)cc(C)oc12`: > 4 mM (inactive).
Then `Cc1ccc2cccc(SCC(=O)N3CCOCC3)c2n1`, with “inactive”.
Next, `CC(=O)Oc1ccc2c(c1C(C)C)CCC1C(C)(C)CCC[C@]21C` (some centres not stated): > 4 mM (inactive); `O=C1c2ccc(F)cc2C(=O)N1CO`: > 4 mM (inactive).
On to `O=C(NC1CCS(=O)(=O)C1)C1CCCCC1` (configuration not stated), for which the Kd was > 4 mM (inactive).
Next, `O=C(O)C1CSC(c2cc3ccccc3nc2Cl)N1` (configuration not stated): > 4 mM (inactive); `Cc1cc(C)nc(/N=C(/N)N2CCN(C)CC2)n1`: > 4 mM (inactive).
Regarding `CC(=O)CC1(O)C(=O)Nc2ccc(Br)cc21` (configuration not stated), the Kd was > 4 mM (inactive).
Then `COC(=O)CCC(C)C1CCC2C3CCC4C[C@H](O)CC[C@]4(C)C3C[C@H](O)[C@]12C` (some centres not stated), with > 4 mM (inactive).
`Cc1nc(-c2ccc(C(=O)O)s2)cs1`: the Kd is > 4 mM (inactive).
Then `O=C(Cc1cccs1)N1CCOCC1`, with > 4 mM (inactive); and `NCCNC(=S)Nc1ccccc1`, with > 4 mM (inactive); and `CC(C)(C(N)=O)/[N+]([O-])=C\c1ccccc1`, with > 4 mM (inactive).
Next, `Cc1nc2ccccc2n1S(=O)(=O)N1CCOCC1`: “inactive”; `Nc1nsc(-c2ccccc2)n1`: > 4 mM (inactive).
Regarding `Cc1ccc(SCC(=O)N2CCOCC2)cc1`, the Kd is 0.022 mM and 0.012 mM.
Next, `CN1CCN(C(=O)c2ccccc2C(=O)O)CC1`: > 4 mM (inactive); `NC(=O)CNC(=O)c1ccc2ccccc2n1`: > 4 mM (inactive).
Then `O=C(Nc1nncs1)c1c(F)cccc1F`, with > 4 mM (inactive); and `Nc1ncccc1OCc1ccccc1`, with > 4 mM (inactive).
On to `COC(=O)c1c(C)cc(OC)cc1O`, for which the Kd is > 4 mM (inactive).
Then `Nn1cnn2c(SCc3ccccc3)nnc12`, with > 4 mM (inactive).

These data come from PubChem BioAssay AID608 (Sanford-Burnham Center for Chemical Genomics, 2007).
